Counter-ions that a name gives are not always drawn.
How the values were obtained:
[1] = Antibiotiki 24(1979) p.659; cited from earlier work
[2] = Arzneimittelforschung 27(1977) p. 132; cited from earlier work
[3] = Toxicity test in mouse (LD50, intraperitoneal application); details: in vivo, ip
Excerpt: The results of these toxicity tests on mouse and rat are shown in the following table as well as the effective dosage: […]

Compound	antibiotic action [1]	protection against radiation [2]	LD50 [3]
Cc1cc(=O)[nH]c(=O)[nH]1 [6-methyluracil]	has an antibiotic action	can protect against radiation	–
Cc1[nH]c(=O)n(C)c(=O)c1NC(=O)COc1ccc(Cl)cc1 [Example 1, 5-(p-Chlorophenoxy-acetamido)-1,4-dimethyluracil]	–	–	> 1700 mg/kg
Cc1[nH]c(=O)[nH]c(=O)c1NC(=O)COc1ccc(Cl)cc1 [Example 2, 5-(p-Chlorophenoxy-acetamido)-4-methyluracil]	–	–	800 mg/kg
Cc1c(NC(=O)COc2ccc(Cl)cc2)c(=O)n(C)c(=O)n1C [Example 3]	–	–	> 1700 mg/kg
Cn1c(N)c(NC(=O)COc2ccc(Cl)cc2)c(=O)n(C)c1=O [Example 4, 4-amino-5-(p-Chlorophenoxy-acetamido)-1,3-dimethyluracil]	–	–	> 1700 mg/kg
CN(C)CCOC(=O)COc1ccc(Cl)cc1 [Meclofenoxate HCl]	–	–	856 mg/kg
NC(=O)CN1CCCC1=O [Piracetam]	–	–	> 2000 mg/kg
